According to patent US20230077362A1 (CORTEVA AGRISCIENCE LLC, priority 2019, published 2023):
Like-named read-outs stand apart in the source and are kept apart here.

Assays:
Format in all cases: in vivo
[1] = system: Beet Armyworm (Spodoptera exigua) ("BAW"), second instar larvae; assay: Bioassay on beet armyworm (BAW), 128-well diet tray assay; conditions: Spodoptera exigua
How it was run: (§1)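 Covered trays were held at 25° C. under a 14:10 light-dark cycle for five to seven days. Percent mortality was then scored in each well, and activity across eight wells was averaged.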

[2] = system: Cabbage Looper (Trichoplusia ni) ("CL"), second instar larvae; assay: Bioassay on cabbage looper (CL), 128-well diet tray assay; conditions: Trichoplusia ni
How it was run: as §1

[3] = system: Green Peach Aphid ("GPA") (Myzus persicae), wingless adult and nymph stages; assay: Bioassay on green peach aphid (GPA), foliar spray on infested cabbage seedlings; conditions: Myzus persicae, foliar, 72 h
How it was run: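 Cabbage seedlings with 2-3 true leaves, infested one day earlier with 20-50 wingless adult and nymph GPA, sprayed to runoff on both leaf sides; solvent check held 20% acetone/methanol (1:1). Live aphids counted after three days at about 25° C; corrected % control = 100*(X−Y)/X versus solvent check.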

[4] = read-out: BAW (Biological Results, rating)
[5] = read-out: CL (Biological Results, rating)
[6] = read-out: GPA (Biological Results, rating)

Structure (SMILES) | pest or weed control at 50 µg/cm2 ([1]; read-out: BAW rating) [%] | pest or weed control at 50 µg/cm2 ([2]; read-out: CL rating) [%] | pest or weed control at 200 µg/mL ([3]; read-out: GPA rating) [%] | pest or weed control at 50 µg/cm2 [1, 4] [%] | pest or weed control at 50 µg/cm2 [2, 5] [%] | pest or weed control at 200 µg/mL [3, 6] [%]
Cc1ccc(COCc2ccc(F)cc2)c(N2C(=O)CS/C2=N\C(=O)Nc2ccc(-c3ncn(-c4ccc(OC(F)(F)F)cc4)n3)cc2F)c1 [Compound J574, (Z)-1-(2-Fluoro-4-(1-(4-(trifluoromethoxy)phenyl)-1H-1,2,4-triazol-3-yl)phenyl)-3-(3-(2-(((4-fluorobenzyl)oxy)methyl)-5-methylphenyl)-4-oxothiazolidin-2-ylidene)urea] | 50 to 100 | 50 to 100 | 0 to 80 | – | – | –
CCNc1ccc(C(C)C)c(N2C(=O)CS/C2=N\C(=O)Nc2ccc(-c3ncn(-c4ccc(OC(F)(F)F)cc4)n3)cc2C)c1 [Compound J127, (Z)-1-(3-(5-(Ethylamino)-2-isopropylphenyl)-4-oxothiazolidin-2-ylidene)-3-(2-methyl-4-(1-(4-(trifluoromethoxy)phenyl)-1H-1,2,4-triazol-3-yl)phenyl)urea] | – | – | – | 50 to 100 | 50 to 100 | 0 to 80
Cc1ccc(-n2cnc(-c3ccc(NC(=O)/N=C4\SCC(=O)N4c4cc(C)ccc4C(C)C)c(F)c3)n2)cc1 [Compound J148, (Z)-1-(2-Fluoro-4-(1-(p-tolyl)-1H-1,2,4-triazol-3-yl)phenyl)-3-(3-(2-isopropyl-5-methylphenyl)-4-oxothiazolidin-2-ylidene)urea] | – | – | – | 50 to 100 | 50 to 100 | 0 to 80
Cc1ccc(COCc2ccc(OC(F)(F)F)cc2)c(N2C(=O)CS/C2=N\C(=O)Nc2ccc(-c3ncn(-c4ccc(OC(F)(F)F)cc4)n3)cc2F)c1 [Compound J570, (Z)-1-(2-Fluoro-4-(1-(4-(trifluoromethoxy)phenyl)-1H-1,2,4-triazol-3-yl)phenyl)-3-(3-(5-methyl-2-(((4-(trifluoromethoxy)benzyl)oxy)methyl)phenyl)-4-oxothiazolidin-2-ylidene)urea] | 50 to 100 | 50 to 100 | 0 to 80 | – | – | –
CCOC(C)c1ccc(C)cc1N1C(=O)CS/C1=N\C(=O)Nc1ccc(-c2ncn(-c3ccc(SC(F)(F)F)cc3)n2)cc1F (stereo not drawn) [Compound J230, (Z)-1-(3-(2-(1-Ethoxyethyl)-5-methylphenyl)-4-oxothiazolidin-2-ylidene)-3-(2-fluoro-4-(1-(4-((trifluoromethyl)thio)phenyl)-1H-1,2,4-triazol-3-yl)phenyl)urea] | – | – | – | 50 to 100 | 50 to 100 | 0 to 80
COc1ccc(C(C)C)c(N2C(=O)CS/C2=N\C(=O)Nc2ccc(-c3ncn(-c4cccc(OC(F)(F)F)c4)n3)cc2F)c1 [Compound J154, (Z)-1-(2-Fluoro-4-(1-(3-(trifluoromethoxy)phenyl)-1H-1,2,4-triazol-3-yl)phenyl)-3-(3-(2-isopropyl-5-methoxyphenyl)-4-oxothiazolidin-2-ylidene)urea] | – | – | – | 50 to 100 | 50 to 100 | 0 to 80
CCOCc1ccc(C)cc1N1C(=O)CS/C1=N\C(=O)Nc1ccc(-c2ncn(-c3ccc(OC(F)(F)F)cc3)n2)cc1F [Compound J180, (Z)-1-(3-(2-(Ethoxymethyl)-5-methylphenyl)-4-oxothiazolidin-2-ylidene)-3-(2-fluoro-4-(1-(4-(trifluoromethoxy)phenyl)-1H-1,2,4-triazol-3-yl)phenyl)urea] | – | – | – | 50 to 100 | 50 to 100 | 0 to 80
Cc1ccc(OCCC(F)(F)F)c(N2C(=O)CS/C2=N\C(=O)Nc2ccc(-c3ncn(-c4cccc(OC(F)(F)F)c4)n3)cc2C)c1 [Compound J138, (Z)-1-(3-(5-Methyl-2-(3,3,3-trifluoropropoxy)phenyl)-4-oxothiazolidin-2-ylidene)-3-(2-methyl-4-(1-(3-(trifluoromethoxy)phenyl)-1H-1,2,4-triazol-3-yl)phenyl)urea] | – | – | – | 50 to 100 | 50 to 100 | 0 to 80
COC(C)c1ccc(C)cc1N1C(=O)CS/C1=N\C(=O)Nc1ccc(-c2ncn(-c3ccc(S(=O)(=O)C(F)(F)F)cc3)n2)cc1C (stereo not drawn) [Compound J362, (Z)-1-(3-(2-(1-Methoxyethyl)-5-methylphenyl)-4-oxothiazolidin-2-ylidene)-3-(2-methyl-4-(1-(4-((trifluoromethyl)sulfonyl)phenyl)-1H-1,2,4-triazol-3-yl)phenyl)urea] | 50 to 100 | 50 to 100 | 0 to 80 | – | – | –
COC(C)c1ccccc1N1C(=O)CS/C1=N\C(=O)Nc1ccc(-c2ncn(-c3ccc(OC(F)(F)F)cc3)n2)cc1F (stereo not drawn) [Compound J87, (Z)-1-(2-Fluoro-4-(1-(4-(trifluoromethoxy)phenyl)-1H-1,2,4-triazol-3-yl)phenyl)-3-(3-(2-(1-methoxyethyl)phenyl)-4-oxothiazolidin-2-ylidene)urea] | – | – | – | 50 to 100 | 50 to 100 | 0 to 80
O=C(/N=C1\SCC(=O)N1c1ccccc1COCC(F)(F)F)Nc1ccc(-c2ncn(-c3ccc(OC(F)(F)F)cc3)n2)cc1F [Compound J659, (Z)-1-(2-Fluoro-4-(1-(4-(trifluoromethoxy)phenyl)-1H-1,2,4-triazol-3-yl)phenyl)-3-(4-oxo-3-(2-((2,2,2-trifluoroethoxy)methyl)phenyl)thiazolidin-2-ylidene)urea] | 50 to 100 | 50 to 100 | 0 to 80 | – | – | –
CC(C)c1ccc(N(C)C)cc1N1C(=O)CS/C1=N\C(=O)Nc1ccc(-c2ncn(-c3ccc(S(=O)(=O)C(F)(F)F)cc3)n2)cc1F [Compound J364, (Z)-1-(3-(5-(Dimethylamino)-2-isopropylphenyl)-4-oxothiazolidin-2-ylidene)-3-(2-fluoro-4-(1-(4-((trifluoromethyl)sulfonyl)phenyl)-1H-1,2,4-triazol-3-yl)phenyl)urea] | 50 to 100 | 50 to 100 | 0 to 80 | – | – | –
Cc1ccc(OCCC(F)(F)F)c(N2C(=O)CS/C2=N\C(=O)Nc2ccc(-c3ncn(-c4ccc(OC(F)(F)F)cc4)n3)cc2F)c1 [Compound J35, (Z)-1-(2-Fluoro-4-(1-(4-(trifluoromethoxy)phenyl)-1H-1,2,4-triazol-3-yl)phenyl)-3-(3-(5-methyl-2-(3,3,3-trifluoropropoxy)phenyl)-4-oxothiazolidin-2-ylidene)urea] | – | – | – | 50 to 100 | 50 to 100 | 0 to 80
N#Cc1ccc(OCCC(F)(F)F)c(N2C(=O)CS/C2=N\C(=O)Nc2ccc(-c3ncn(-c4ccc(OC(F)(F)F)cc4)n3)cc2F)c1 [Compound J103, (Z)-1-(3-(5-Cyano-2-(3,3,3-trifluoropropoxy)phenyl)-4-oxothiazolidin-2-ylidene)-3-(2-fluoro-4-(1-(4-(trifluoromethoxy)phenyl)-1H-1,2,4-triazol-3-yl)phenyl)urea] | – | – | – | 50 to 100 | 50 to 100 | 0 to 80
CC(C)c1ccc(N(C)C)cc1N1C(=O)CS/C1=N\C(=O)Nc1ccc(-c2ncn(-c3cccc(C(F)(F)F)c3)n2)cc1F [Compound J153, (Z)-1-(3-(5-(Dimethylamino)-2-isopropylphenyl)-4-oxothiazolidin-2-ylidene)-3-(2-fluoro-4-(1-(3-(trifluoromethyl)phenyl)-1H-1,2,4-triazol-3-yl)phenyl)urea] | – | – | – | 50 to 100 | 50 to 100 | 0 to 80
Cc1ccc(C(C)C)c(N2C(=O)CS/C2=N\C(=O)Nc2ccc(-c3ncn(-c4cccc(OC(F)(F)F)c4)n3)cc2C)c1 [Compound J135, (Z)-1-(3-(2-Isopropyl-5-methylphenyl)-4-oxothiazolidin-2-ylidene)-3-(2-methyl-4-(1-(3-(trifluoromethoxy)phenyl)-1H-1,2,4-triazol-3-yl)phenyl)urea] | – | – | – | 50 to 100 | 50 to 100 | 0 to 80
Cc1ccc(OCC(F)(F)F)c(N2C(=O)CS/C2=N\C(=O)Nc2ccc(-c3ncn(-c4ccc(SC(F)(F)F)cc4)n3)cc2F)c1 [Compound J223, (Z)-1-(2-Fluoro-4-(1-(4-((trifluoromethyl)thio)phenyl)-1H-1,2,4-triazol-3-yl)phenyl)-3-(3-(5-methyl-2-(2,2,2-trifluoroethoxy)phenyl)-4-oxothiazolidin-2-ylidene)urea] | – | – | – | 50 to 100 | 50 to 100 | 0 to 80
Cc1ccc(C(C)C)c(N2C(=O)CS/C2=N\C(=O)Nc2ccc(-c3ncn(-c4ccc(OCC#N)cc4)n3)cc2F)c1 [Compound J344, (Z)-1-(4-(1-(4-(Cyanomethoxy)phenyl)-1H-1,2,4-triazol-3-yl)-2-fluorophenyl)-3-(3-(2-isopropyl-5-methylphenyl)-4-oxothiazolidin-2-ylidene)urea] | – | – | – | 50 to 100 | 50 to 100 | 0 to 80
Cc1ccc(COCC(F)(F)F)c(N2C(=O)CS/C2=N\C(=O)Nc2ccc(-c3cn(-c4ccc(S(=O)(=O)C(F)(F)F)cc4)cn3)cc2F)c1 [Compound J647, (Z)-1-(2-Fluoro-4-(1-(4-((trifluoromethyl)sulfonyl)phenyl)-1H-imidazol-4-yl)phenyl)-3-(3-(5-methyl-2-((2,2,2-trifluoroethoxy)methyl)phenyl)-4-oxothiazolidin-2-ylidene)urea] | 50 to 100 | 50 to 100 | 0 to 80 | – | – | –
